Source: patent US12172975B2, “1H-indazole carboxamides as receptor-interacting protein kinase 1 inhibitors (RIPK1)” (BRISTOL-MYERS SQUIBB COMPANY, priority 2018, dated 2024)
Where a name gives a salt, the structure may show the parent alone. Read-outs that look alike come from different tables or passages of the source.

What was measured:
[1] = biological target: His-GST-TVMV-hRIPK1 (1-324) (Homo sapiens (Human), UniProt Q13546); assay: RIPK1 HTRF Binding Assay; details: read-out: RIPK1 HTRF (IC50); FRET probe displacement, 1 h at rt
[2] = system: MLKL phosphorylation in HT29-L23 human colorectal adenocarcinoma cells; assay: MLKL Phosphorylation High-Content Assay; type: cell-based; details: 6 h, necroptosis induced with TNFα, SMAC mimetic and Z-VAD, read-out: pMLKL (IC50)
In short: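 Following fixation and staining for phospho-S358 MLKL with Hoechst nuclear counterstain, high-content imaging quantified phosphorylation in HT29-L23 cells challenged 6 h with TNFα 35 ng/mL, SMAC mimetic 700 nM and Z-VAD 140 nM. Nec-1s at 6.25 μM defined full inhibition; 4-parameter logistic fits yielded IC50 and Ymax.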

His-GST-TVMV-hRIPK1 (1-324), sequence (Q13546 1-324): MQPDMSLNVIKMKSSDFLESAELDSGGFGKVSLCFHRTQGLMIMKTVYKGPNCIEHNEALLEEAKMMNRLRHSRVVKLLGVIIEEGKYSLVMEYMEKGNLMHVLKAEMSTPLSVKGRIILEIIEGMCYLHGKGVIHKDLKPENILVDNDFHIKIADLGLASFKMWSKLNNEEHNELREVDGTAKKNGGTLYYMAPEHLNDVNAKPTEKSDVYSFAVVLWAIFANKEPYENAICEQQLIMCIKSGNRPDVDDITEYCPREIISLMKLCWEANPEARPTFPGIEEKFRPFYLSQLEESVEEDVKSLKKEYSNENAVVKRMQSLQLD

`CNC(=O)c1n[nH]c2cc(-c3cnc(OC)c(C(=O)NCC(C)(C)C(=O)NCc4ccc(F)cc4)c3)ccc12` [Example 91, 6-{5-[(2-{[(4-fluorophenyl)-methyl]carbamoyl}-2,2-dimethylethyl)carbamoyl]-6-methoxypyridin-3-yl}-N-methyl-1H-indazole-3-carboxamide] showed an IC50 [1] of 1.8 nM and an IC50 ([2]; Homo sapiens) of 16 nM.
`[2H]C([2H])([2H])Oc1ncc(-c2ccc3c(C(=O)NCC4CC4)n[nH]c3c2)cc1C(=O)NC(C)c1ccccc1OC(F)(F)F` (centres unmarked) [Example 168, N-(cyclopropylmethyl)-6-[6-(deutero)methoxy-5-({1-[2-(tri-fluoromethoxy)phenyl]ethyl}-carbamoyl)pyridin-3-yl]-1H-indazole-3-carboxamide] showed an IC50 [1] of 38 nM and an IC50 ([2]; Homo sapiens) of 17 nM.
Compound `CNC(=O)c1n[nH]c2cc(-c3cnc(OC)c(C(=O)NC4CCCC(C(=O)N(C)C5CC5)C4)c3)ccc12` (centres unmarked) [Example 125, 6-[5-({3-[cyclopropyl(methyl)-carbamoyl]cyclohexyl}carbam-oyl)-6-methoxypyridin-3-yl]-N-methyl-1H-indazole-3-carbox-amide] has an IC50 [1] of 12 nM and an IC50 [2] of 8.8 nM.
`CNC(=O)c1n[nH]c2cc(-c3cnc(OC)c(C(=O)N4CCC[C@@H](Cc5ccc(F)cc5)C4)c3)ccc12` [Example 134, 6-{5-[(3S)-3-[(4-fluorophenyl)-methyl]piperidine-1-carbonyl]-6-methoxy-pyridin-3-yl}-N-methyl-1H-indazole-3-carbox-amide, TFA] was tested, and the IC50 [1] was 17 nM and the IC50 [2] was 7.3 nM.
For `CCN(CC)C(=O)C1CCCC(NC(=O)c2cc(-c3ccc4c(C(=O)NC)n[nH]c4c3)cnc2OC)C1` (centres unmarked) [Example 121, 6-(5-{[3-(diethylcarbamoyl)-cyclohexyl]carbamoyl}-6-methoxypyridin-3-yl)-N-methyl-1H-indazole-3-carbox-amide], the IC50 [1] was 6.1 nM and the IC50 [2] was 7.5 nM.
`CCN(C)C(=O)C1CCCC(NC(=O)c2cc(-c3ccc4c(C(=O)NC)n[nH]c4c3)cnc2OC)C1` (centres unmarked) [Example 122, 6-[5-({3-[ethyl(methyl)carbam-oyl]cyclohexyl}carbamoyl)-6-methoxypyridin-3-yl]-N-methyl-1H-indazole-3-carboxamide] gave an IC50 [1] of 12 nM and an IC50 [2] of 120 nM.
`CNC(=O)c1n[nH]c2cc(-c3cnc(OC)c(C(=O)NC[C@@H]4CCCC[C@H]4NC(=O)OC(C)(C)C)c3)ccc12` [Example 77, tert-butyl N-[(1R,2S)-2-[({2-methoxy-5-[3-(methylcarbam-oyl)-1H-indazol-6-yl]pyridin-3-yl}formamido)methyl]-cyclohexyl]carbamate] gave an IC50 [1] of 3.8 nM and an IC50 [2] of 78 nM.
`COc1ncc(-c2ccc3c(C(=O)NC4CC4)n[nH]c3c2)cc1C(=O)N[C@@H]1CN(C(=O)C2CCC(F)(F)C2)C[C@@H]1F` (stereo partly drawn) [Example 199, N-cyclopropyl-6-(5-{[(3R,4S)-1-(3,3-difluorocyclopentanecarbon-yl)-4-fluoropyrrolidin-3-yl]-carbamoyl}-6-(deutero)methoxy-pyridin-3-yl)-1H-indazole-3-carboxamide, TFA] showed an IC50 [1] of 340 nM and an IC50 [2] of 99 nM.
In the case of `[2H]C([2H])([2H])NC(=O)c1n[nH]c2cc(-c3cnc(OC([2H])([2H])[2H])c(C(=O)N[C@@H](C)c4cccc(C(F)(F)F)c4)c3)ccc12` [Example 214, 6-[6-(deutero)methoxy-5-{[(1S)-1-[3-(trifluoromethyl)phenyl]ethyl]carbam-oyl}pyridin-3-yl]-N-(deutero)methyl-1H-indazole-3-carboxamide], the IC50 [1] is reported as 9.8 nM and the IC50 ([2]; Homo sapiens) is reported as 36 nM.
In the case of `CNC(=O)c1n[nH]c2cc(-c3cnc(C)c(C(=O)N[C@H]4CC[C@@H](c5ccccc5)C4)c3)ccc12` [Example 154, N-methyl-6-(6-methyl-5-{[(1S,3R)-3-phenylcyclopentyl]carbamoyl}-pyridin-3-yl)-1H-indazole-3-carbox-amide], the IC50 [1] is reported as 2.9 nM and the IC50 [2] is reported as 58 nM.
